The results in this text go back to PubChem BioAssay (NCI).

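Step 1: Grow cells in 96-well plates. Step 2: Expose to compound for 48 hours at 5 concentrations. Step 3: Interpolate endpoints linearly; if unreached, use highest concentration. At the GI50, growth is halved. Definition used: TGI = concentration required for complete inhibition of growth.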

Some test systems named below: RPMI-8226 leukemia; HT29 colon; NCI-H23 lung; SF-268 CNS; NCI-H522 lung; CCRF-CEM leukemia; SK-OV-3 ovarian; MALME-3M melanoma; TK-10 renal; SR leukemia.
Holding throughout (test): inhibition of tumour cell growth, NCI panel, 48 h

Take `COc1ccc(/C=C/C(=O)c2sc(N)nc2C)cc1`: the TGI in the test with RPMI-8226 leukemia, in the test on HT29 colon, with NCI-H23 lung, in the test on SF-268 CNS, in the test on NCI-H522 lung and in the test on CCRF-CEM leukemia was greater than 100 µM each time. In addition, the TGI with SK-OV-3 ovarian, in the test on MALME-3M melanoma and with TK-10 renal was greater than 100 µM throughout.

Consider `CC(=O)OC1(C#N)CC2OC1C1C2N1C(=O)c1ccccc1` (stereo not given), for which the TGI in the test with RPMI-8226 leukemia, in the test on NCI-H23 lung, in the test with SF-268 CNS, in the test on NCI-H522 lung, with CCRF-CEM leukemia and with SK-OV-3 ovarian was greater than 100 µM each time. Besides, the TGI in the test with MALME-3M melanoma and in the test with TK-10 renal was greater than 100 µM in each case.

Consider `C/C(CC(O)(C(F)(F)F)C(F)(F)F)=N\N`, for which the TGI with RPMI-8226 leukemia, in the test with HT29 colon, in the test on NCI-H23 lung, in the test on SF-268 CNS, in the test with NCI-H522 lung and in the test on CCRF-CEM leukemia was greater than 10 µM throughout. The TGI in the test with SK-OV-3 ovarian, with MALME-3M melanoma and in the test with TK-10 renal was greater than 10 µM each time.

In the case of `O=C(NCCCN1CCN(CCCNC(=O)c2cnc3ccccc3n2)CC1)c1cnc2ccccc2n1`, the TGI in the test with RPMI-8226 leukemia, in the test with HT29 colon, in the test on SF-268 CNS, with NCI-H522 lung, in the test on CCRF-CEM leukemia and with SK-OV-3 ovarian was greater than 100 µM each time. Besides, the TGI in the test on MALME-3M melanoma was greater than 100 µM.

Turning to `CC(=O)CC(=O)CCCC(=O)Nc1ccc(Cl)cc1C`, the TGI with RPMI-8226 leukemia, in the test with HT29 colon, in the test with NCI-H23 lung, in the test on SF-268 CNS, with NCI-H522 lung and in the test with CCRF-CEM leukemia was greater than 100 µM throughout. For the same compound, the TGI with SK-OV-3 ovarian, in the test with MALME-3M melanoma and in the test with TK-10 renal was greater than 100 µM in each case.

For the compound `Cc1cc(C)nc(NS(=O)(=O)c2ccc(Nc3c4ccccc4nc4c(C(=O)NCCN(C)C)ccc(Cl)c34)cc2)n1`, the TGI in the test with HT29 colon was found to be 4.8 µM; in the test on NCI-H23 lung it was 11.7 µM; with SF-268 CNS, 8.11 µM; in the test with NCI-H522 lung, 3.32 µM; in the test with CCRF-CEM leukemia it was 15.7 µM; with SR leukemia it was 5.46 µM. The TGI in the test with TK-10 renal worked out at 20.3 µM.

With `NC(=O)c1ccccc1NC(=O)C(=O)C(C(=O)c1ccc2ccccc2c1)C1OC(=O)c2ccccc21` (stereo not given), the TGI stood at 48.1 µM in the test with RPMI-8226 leukemia; 75.8 µM with HT29 colon; 37.1 µM in the test with SF-268 CNS; 43.2 µM in the test with NCI-H522 lung; 77.6 µM in the test with CCRF-CEM leukemia; 75.2 µM in the test with SK-OV-3 ovarian. In addition, the TGI amounted to 26.3 µM in the test on MALME-3M melanoma and 48.9 µM with TK-10 renal.

For the compound `C/C(=N\NC(=O)CC(=O)Nc1ccc(C)cc1)c1cc2ccccc2oc1=O`, the TGI with RPMI-8226 leukemia, in the test with HT29 colon, with NCI-H23 lung, in the test on NCI-H522 lung, in the test with CCRF-CEM leukemia and in the test with SK-OV-3 ovarian was greater than 100 µM each time. In addition, the TGI in the test on MALME-3M melanoma and in the test on TK-10 renal was greater than 100 µM each time.

As for `Nc1ccc2c(c1)C(=O)c1ccc(F)cc1-2`, the TGI in the test with RPMI-8226 leukemia, with HT29 colon, in the test with NCI-H23 lung, in the test with SF-268 CNS, with NCI-H522 lung and in the test with CCRF-CEM leukemia was greater than 100 µM throughout. Also, the TGI in the test on SK-OV-3 ovarian, in the test on SR leukemia and in the test on TK-10 renal was greater than 100 µM each time.

On to `Cc1ccc(-n2c3c(c4c(CN5CCCCC5)c(O)ccc42)CCc2ccccc2C3=O)cc1`, for which the GI50 with RPMI-8226 leukemia, with NCI-H23 lung, in the test on SF-268 CNS, in the test with NCI-H522 lung, with SK-OV-3 ovarian and in the test with MALME-3M melanoma was greater than 100 µM throughout. Also, the GI50 in the test with TK-10 renal is greater than 100 µM. For the same compound, the TGI with RPMI-8226 leukemia, with NCI-H23 lung, in the test with SF-268 CNS, in the test on NCI-H522 lung, with SK-OV-3 ovarian and in the test with MALME-3M melanoma was greater than 100 µM each time. Besides, the TGI in the test with TK-10 renal was greater than 100 µM.

In the case of `CCCCCCCCCCCCCCCCOC(=O)C(C(=O)OCCCCCCCCCCCCCCCC)[N+](C)(C)CCOC(C)=O`, the TGI in the test with HT29 colon is 25.9 µM; with NCI-H23 lung, 30.3 µM; in the test with SF-268 CNS it was 44.1 µM; in the test with NCI-H522 lung, 23.3 µM; in the test with CCRF-CEM leukemia, 28.6 µM; in the test on SK-OV-3 ovarian it was 34.8 µM. The TGI with MALME-3M melanoma stood at 41.2 µM; with TK-10 renal it was 26.5 µM.

Consider `Cc1cc2c3ccccc3n(C)c2c2c1C(=O)c1ccccc1C2=O`, for which the TGI with HT29 colon was 73.2 µM; in the test with NCI-H23 lung, 44 µM; with SF-268 CNS it was greater than 100 µM; in the test with NCI-H522 lung it was 49.2 µM; with CCRF-CEM leukemia it was 25.5 µM; with SK-OV-3 ovarian, 61.7 µM. Further, the values for the TGI in the test with MALME-3M melanoma, in the test on SR leukemia and in the test with TK-10 renal were 35.4 µM, 22.5 µM and 81.3 µM, respectively.

As for `N=C(N)n1ncc(Cl)c(Cl)c1=O`, the TGI in the test with RPMI-8226 leukemia was found to be 7.55 µM; in the test on NCI-H23 lung it was 5.06 µM; in the test on SF-268 CNS, 9.34 µM; in the test with NCI-H522 lung it was 3.43 µM; in the test on SK-OV-3 ovarian, 32 µM; in the test with MALME-3M melanoma it was 4.98 µM. This compound showed a TGI in the test with TK-10 renal of 35.3 µM.

As to `C/C(CN1C(=O)c2ccccc2C1=O)=N\NS(=O)(=O)c1ccccc1`, the TGI in the test with RPMI-8226 leukemia, in the test with HT29 colon, with NCI-H23 lung, in the test on SF-268 CNS, in the test with NCI-H522 lung and in the test with CCRF-CEM leukemia was greater than 100 µM in each case. Besides, the TGI in the test on SK-OV-3 ovarian, in the test on MALME-3M melanoma and in the test on TK-10 renal was greater than 100 µM in each case.

As for `CC1=C(C(=O)Nc2cccc(C(F)(F)F)c2)C(c2ccc(O)cc2)C(C(=O)Nc2cccc(C(F)(F)F)c2)=C(C)N1`, the TGI was 41.2 µM with RPMI-8226 leukemia; 31.7 µM in the test on HT29 colon; 35.8 µM in the test with NCI-H23 lung; greater than 100 µM in the test with SF-268 CNS; 34.4 µM in the test on NCI-H522 lung; 66.4 µM with CCRF-CEM leukemia. Besides, the TGI in the test on SK-OV-3 ovarian was determined as 83.4 µM; in the test on MALME-3M melanoma it was 64.4 µM; with TK-10 renal, 66.6 µM.
